Converted amounts (≈) assume the structure as drawn.
Tests used:
Assay in all cases: in vitro antibacterial evaluation, MIC by broth dilution
Format in all cases: cell-based
Enterococcus sp. = settings: broth dilution, 18 hours at 35° C.
Outline: (§1)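 Inoculum 5×10^5 CFU/mL; concentrations 64 to 0.06 μg/mL; MIC defined as lowest inhibitory level. Conducted by broth dilution under NCCLS guidelines.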

Staphylococcus sp. = settings: broth dilution, 18 hours at 35° C.; for MIC Staphylococcus aureus (GC 1131): strain GC 1131
Outline: as §1

Streptococcus sp. = settings: broth dilution, 18 hours at 35° C.
Outline: as §1

Escherichia coli = settings: 18 hours at 35° C.

## CC(c1ccccc1)C1NC(=O)CNC(=O)C(CO)NC(=O)C(C(O)C2CNC(=N)N2C2OC(CO)C(O)C(O)C2O)NC(=O)C(C(O)C2CNC(=N)N2)NC(=O)C(Cc2ccc(OC3OC(CO)C(OC4OC5COC6(CCCCC6C)OC5C(O)C4O)C(O)C3O)cc2)NC1=O (stereo not shown) [Example 204]
Enterococcus sp.
  MIC Enterococcus avium (GC 4558): 16 µg/mL (≈ 11.5 µM)
  MIC Enterococcus faecalis (ATCC 29212): 16 µg/mL (≈ 11.5 µM)
  MIC Enterococcus faecalis (GC 2242): 16 µg/mL (≈ 11.5 µM)
  MIC Enterococcus faecalis (GC 2691): 16 µg/mL (≈ 11.5 µM)
  MIC Enterococcus faecalis (GC 3059): 16 µg/mL (≈ 11.5 µM)
  MIC Enterococcus faecalis (GC 4552): 16 µg/mL (≈ 11.5 µM)
  MIC Enterococcus faecalis (GC 4553): 16 µg/mL (≈ 11.5 µM)
  MIC Enterococcus faecalis (GC 4554): 16 µg/mL (≈ 11.5 µM)
  MIC Enterococcus faecalis (GC 6189): 16 µg/mL (≈ 11.5 µM)
  MIC Enterococcus faecium (GC 2243): 16 µg/mL (≈ 11.5 µM)
  MIC Enterococcus faecium (GC 4556): 16 µg/mL (≈ 11.5 µM)
  MIC Enterococcus faecium (GC 4557): 8 µg/mL (≈ 5.76 µM)
Enterococcus sp.; inoculum 5×10^5 CFU/mL, strain ATCC 29212
  MIC Enterococcus faecalis (ATCC 29212): 16 µg/mL (≈ 11.5 µM)
Enterococcus sp.; inoculum 5×10^5 CFU/mL, strain GC 2242
  MIC Enterococcus faecalis (GC 2242): 16 µg/mL (≈ 11.5 µM)
Enterococcus sp.; inoculum 5×10^5 CFU/mL, strain GC 2243
  MIC Enterococcus faecium (GC 2243): 16 µg/mL (≈ 11.5 µM)
Enterococcus sp.; inoculum 5×10^5 CFU/mL, strain GC 2691
  MIC Enterococcus faecalis (GC 2691): 16 µg/mL (≈ 11.5 µM)
Enterococcus sp.; inoculum 5×10^5 CFU/mL, strain GC 3059
  MIC Enterococcus faecalis (GC 3059): 16 µg/mL (≈ 11.5 µM)
Enterococcus sp.; inoculum 5×10^5 CFU/mL, strain GC 4552
  MIC Enterococcus faecalis (GC 4552): 16 µg/mL (≈ 11.5 µM)
Enterococcus sp.; inoculum 5×10^5 CFU/mL, strain GC 4553
  MIC Enterococcus faecalis (GC 4553): 16 µg/mL (≈ 11.5 µM)
Enterococcus sp.; inoculum 5×10^5 CFU/mL, strain GC 4554
  MIC Enterococcus faecalis (GC 4554): 16 µg/mL (≈ 11.5 µM)
Enterococcus sp.; inoculum 5×10^5 CFU/mL, strain GC 4556
  MIC Enterococcus faecium (GC 4556): 16 µg/mL (≈ 11.5 µM)
Enterococcus sp.; inoculum 5×10^5 CFU/mL, strain GC 4557
  MIC Enterococcus faecium (GC 4557): 8 µg/mL (≈ 5.76 µM)
Enterococcus sp.; inoculum 5×10^5 CFU/mL, strain GC 4558
  MIC Enterococcus avium (GC 4558): 16 µg/mL (≈ 11.5 µM)
Enterococcus sp.; inoculum 5×10^5 CFU/mL, strain GC 6189
  MIC Enterococcus faecalis (GC 6189): 16 µg/mL (≈ 11.5 µM)
Staphylococcus sp.; inoculum 5×10^5 CFU/mL
  MIC Staphylococcus aureus (GC 1131): 8 µg/mL (≈ 5.76 µM)
Staphylococcus sp.; strain ATCC 29213
  MIC Staphylococcus aureus (ATCC 29213): 4 µg/mL (≈ 2.88 µM)
Staphylococcus sp.
  MIC Staphylococcus aureus (GC 1131): 8 µg/mL (≈ 5.76 µM)
Staphylococcus sp.; strain GC 3051
  MIC Staphylococcus aureus (GC 3051): 4 µg/mL (≈ 2.88 µM)
Staphylococcus sp.; strain GC 3053
  MIC Staphylococcus aureus (GC 3053): 8 µg/mL (≈ 5.76 µM)
Staphylococcus sp.; strain GC 4541
  MIC Staphylococcus aureus (GC 4541): 4 µg/mL (≈ 2.88 µM)
Staphylococcus sp.; strain GC 4542
  MIC Staphylococcus aureus (GC 4542): 4 µg/mL (≈ 2.88 µM)
Staphylococcus sp.; strain GC 4543
  MIC Staphylococcus aureus-SMITH (GC 4543): 4 µg/mL (≈ 2.88 µM)
Staphylococcus sp.; strain GC 4544
  MIC Staphylococcus aureus (GC 4544): 8 µg/mL (≈ 5.76 µM)
Staphylococcus sp.; strain GC 4545
  MIC Staphylococcus aureus (GC 4545): 4 µg/mL (≈ 2.88 µM)
Staphylococcus sp.; strain GC 4546
  MIC Staphylococcus haemolyticus (GC 4546): 2 µg/mL (≈ 1.44 µM)
Staphylococcus sp.; strain GC 4547
  MIC Coagulase Negative Staphylococcus (GC 4547): 4 µg/mL (≈ 2.88 µM)
Staphylococcus sp.; strain GC 4548
  MIC Coagulase Negative Staphylococcus (GC 4548): 4 µg/mL (≈ 2.88 µM)
Staphylococcus sp.; strain GC 4549
  MIC Coagulase Negative Staphylococcus (GC 4549): 2 µg/mL (≈ 1.44 µM)
Staphylococcus sp.; strain GC 4551
  MIC Coagulase Negative Staphylococcus (GC 4551): 4 µg/mL (≈ 2.88 µM)
Streptococcus sp.
  MIC Streptococcus agalactiae (GC 4564): 1 µg/mL (≈ 0.72 µM)
  MIC Streptococcus pneumoniae (ATCC 6301): 0.5 µg/mL (≈ 0.36 µM)
  MIC Streptococcus pneumoniae (GC 1894): 0.25 µg/mL (≈ 0.18 µM)
  MIC Streptococcus pneumoniae (GC 4565): 0.5 µg/mL (≈ 0.36 µM)
  MIC Streptococcus pyogenes (GC 4563): 0.5 µg/mL (≈ 0.36 µM)
Streptococcus sp.; inoculum 5×10^5 CFU/mL, strain ATCC 6301
  MIC Streptococcus pneumoniae (ATCC 6301): 0.5 µg/mL (≈ 0.36 µM)
Streptococcus sp.; inoculum 5×10^5 CFU/mL, strain GC 1894
  MIC Streptococcus pneumoniae (GC 1894): 0.25 µg/mL (≈ 0.18 µM)
Streptococcus sp.; inoculum 5×10^5 CFU/mL, strain GC 4563
  MIC Streptococcus pyogenes (GC 4563): 0.5 µg/mL (≈ 0.36 µM)
Streptococcus sp.; inoculum 5×10^5 CFU/mL, strain GC 4564
  MIC Streptococcus agalactiae (GC 4564): 1 µg/mL (≈ 0.72 µM)
Streptococcus sp.; inoculum 5×10^5 CFU/mL, strain GC 4565
  MIC Streptococcus pneumoniae (GC 4565): 0.5 µg/mL (≈ 0.36 µM)
Escherichia coli
  MIC Escherichia coli (ATCC 25922): 128 µg/mL (≈ 92.1 µM)
  MIC Escherichia coli (GC 4559): 128 µg/mL (≈ 92.1 µM)
  MIC Escherichia coli (GC 4560): 4 µg/mL (≈ 2.88 µM)

Reference: patent US6914045B2, “Glycopeptide antibiotics” (Wyeth Holdings Corporation, priority 2001, dated 2005)
